PubChem BioAssay (NCI)
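Method: 48-hour compound exposure of cells in 96-well plates, five concentrations, linear interpolation of endpoints. The concentration for 50% growth inhibition is given as GI50. TGI: concentration producing complete growth inhibition.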

Columns and labels:
Assay in all cases: growth of human tumour cells (NCI), 48 h
MALME-3M melanoma = system: MALME-3M melanoma
SK-MEL-2 melanoma = system: SK-MEL-2 melanoma
CAKI-1 renal = system: CAKI-1 renal
OVCAR-4 ovarian = system: OVCAR-4 ovarian
SK-MEL-5 melanoma = system: SK-MEL-5 melanoma
RXF 393 renal = system: RXF 393 renal
RPMI-8226 leukemia = system: RPMI-8226 leukemia
HOP-92 NSCLC = system: HOP-92 NSCLC
NCI-H226 lung = system: NCI-H226 lung
NCI-H522 lung = system: NCI-H522 lung
TK-10 renal = system: TK-10 renal
SR leukemia = system: SR leukemia
BT-549 breast = system: BT-549 breast
NCI-H23 lung = system: NCI-H23 lung
HS 578T breast = system: HS 578T breast
HCT-15 colon = system: HCT-15 colon
UACC-62 melanoma = system: UACC-62 melanoma
SF-295 CNS = system: SF-295 CNS
M14 melanoma = system: M14 melanoma
HT29 colon = system: HT29 colon
IGROV1 ovarian = system: IGROV1 ovarian
HOP-62 NSCLC = system: HOP-62 NSCLC
UACC-257 melanoma = system: UACC-257 melanoma
OVCAR-5 ovarian = system: OVCAR-5 ovarian
OVCAR-3 ovarian = system: OVCAR-3 ovarian
MCF7 breast = system: MCF7 breast
LOX IMVI melanoma = system: LOX IMVI melanoma
HCC-2998 colon = system: HCC-2998 colon
A498 renal = system: A498 renal
SNB-19 CNS = system: SNB-19 CNS
A549 NSCLC = system: A549 NSCLC
NCI/ADR-RES ovarian = system: NCI/ADR-RES ovarian
KM12 colon = system: KM12 colon
COLO 205 colon = system: COLO 205 colon
SN12C renal = system: SN12C renal
CCRF-CEM leukemia = system: CCRF-CEM leukemia
DU-145 prostate = system: DU-145 prostate
EKVX NSCLC = system: EKVX NSCLC
U251 CNS = system: U251 CNS
SW-620 colon = system: SW-620 colon
HL-60(TB) leukemia = system: HL-60(TB) leukemia
MDA-MB-435 = system: MDA-MB-435
SK-OV-3 ovarian = system: SK-OV-3 ovarian
T-47D breast = system: T-47D breast
SK-MEL-28 melanoma = system: SK-MEL-28 melanoma
K-562 leukemia = system: K-562 leukemia
SF-268 CNS = system: SF-268 CNS
HCT-116 colon = system: HCT-116 colon
SF-539 CNS = system: SF-539 CNS
OVCAR-8 ovarian = system: OVCAR-8 ovarian
ACHN renal = system: ACHN renal
UO-31 renal = system: UO-31 renal
NCI-H460 lung = system: NCI-H460 lung
MDA-MB-231 breast = system: MDA-MB-231 breast
786-0 renal = system: 786-0 renal
PC-3 prostate = system: PC-3 prostate
SNB-75 CNS = system: SNB-75 CNS
MOLT-4 leukemia = system: MOLT-4 leukemia

Compound: Nc1nc(-c2ccccc2)cc(-c2ccc(Cl)cc2)c1-c1nc2ccccc2o1
- GI50 (MALME-3M melanoma): 19.2 µM
- TGI (MALME-3M melanoma): 35.3 µM
- GI50 (SK-MEL-2 melanoma): 18 µM
- TGI (SK-MEL-2 melanoma): 37.9 µM
- GI50 (CAKI-1 renal): 22.9 µM
- TGI (CAKI-1 renal): 38.6 µM
- GI50 (OVCAR-4 ovarian): 13.5 µM
- TGI (OVCAR-4 ovarian): 28 µM
- GI50 (SK-MEL-5 melanoma): 12.8 µM
- TGI (SK-MEL-5 melanoma): 25.4 µM
- GI50 (RXF 393 renal): 21.5 µM
- TGI (RXF 393 renal): 44.6 µM
- GI50 (RPMI-8226 leukemia): 4.82 µM
- TGI (RPMI-8226 leukemia): 19.8 µM
- GI50 (HOP-92 NSCLC): 1.7 µM
- TGI (HOP-92 NSCLC): 6.83 µM
- GI50 (NCI-H226 lung): 14.5 µM
- TGI (NCI-H226 lung): 29.2 µM
- GI50 (NCI-H522 lung): 13.5 µM
- TGI (NCI-H522 lung): 30.6 µM
- GI50 (TK-10 renal): 11.3 µM
- TGI (TK-10 renal): 27.1 µM
- GI50 (SR leukemia): 3.08 µM
- TGI (SR leukemia): 8.11 µM
- GI50 (BT-549 breast): 15.5 µM
- TGI (BT-549 breast): 29.7 µM
- GI50 (NCI-H23 lung): 23.5 µM
- TGI (NCI-H23 lung): > 100 µM
- GI50 (HS 578T breast): 14.8 µM
- TGI (HS 578T breast): 36.1 µM
- GI50 (HCT-15 colon): 10.4 µM
- TGI (HCT-15 colon): 23.2 µM
- GI50 (UACC-62 melanoma): 16.6 µM
- TGI (UACC-62 melanoma): 30.6 µM
- GI50 (SF-295 CNS): 20.5 µM
- TGI (SF-295 CNS): 37.7 µM
- GI50 (M14 melanoma): 14.5 µM
- TGI (M14 melanoma): 35.4 µM
- GI50 (HT29 colon): 12 µM
- TGI (HT29 colon): 31.7 µM
- GI50 (IGROV1 ovarian): 12.9 µM
- TGI (IGROV1 ovarian): 28.5 µM
- GI50 (HOP-62 NSCLC): 22.4 µM
- TGI (HOP-62 NSCLC): 37.8 µM
- GI50 (UACC-257 melanoma): 19.5 µM
- TGI (UACC-257 melanoma): 35.1 µM
- GI50 (OVCAR-5 ovarian): 21.8 µM
- TGI (OVCAR-5 ovarian): 42.1 µM
- GI50 (OVCAR-3 ovarian): 15.7 µM
- TGI (OVCAR-3 ovarian): 30.8 µM
- GI50 (MCF7 breast): 2.31 µM
- TGI (MCF7 breast): 16.2 µM
- GI50 (LOX IMVI melanoma): 6.04 µM
- TGI (LOX IMVI melanoma): 18.4 µM
- GI50 (HCC-2998 colon): 10.3 µM
- TGI (HCC-2998 colon): 25.8 µM
- GI50 (A498 renal): 16.7 µM
- TGI (A498 renal): 30.3 µM
- GI50 (SNB-19 CNS): 17.7 µM
- TGI (SNB-19 CNS): 37.9 µM
- GI50 (A549 NSCLC): 14.9 µM
- TGI (A549 NSCLC): 31.4 µM
- GI50 (NCI/ADR-RES ovarian): 11.5 µM
- TGI (NCI/ADR-RES ovarian): 43.4 µM
- GI50 (KM12 colon): 5.65 µM
- TGI (KM12 colon): 20.7 µM
- GI50 (COLO 205 colon): 21.4 µM
- TGI (COLO 205 colon): 37.3 µM
- GI50 (SN12C renal): 7.56 µM
- TGI (SN12C renal): 20 µM
- GI50 (CCRF-CEM leukemia): 3.8 µM
- TGI (CCRF-CEM leukemia): 17 µM
- GI50 (DU-145 prostate): 12.8 µM
- TGI (DU-145 prostate): 26 µM
- GI50 (EKVX NSCLC): 14 µM
- TGI (EKVX NSCLC): 27.7 µM
- GI50 (U251 CNS): 9.2 µM
- TGI (U251 CNS): 21 µM
- GI50 (SW-620 colon): 14.9 µM
- TGI (SW-620 colon): 29.3 µM
- GI50 (HL-60(TB) leukemia): 4.42 µM
- TGI (HL-60(TB) leukemia): 17 µM
- GI50 (MDA-MB-435): 17.6 µM
- TGI (MDA-MB-435): 35.3 µM
- GI50 (SK-OV-3 ovarian): 15.9 µM
- TGI (SK-OV-3 ovarian): 30.7 µM
- GI50 (T-47D breast): 4.21 µM
- TGI (T-47D breast): 27.3 µM
- GI50 (SK-MEL-28 melanoma): 17 µM
- TGI (SK-MEL-28 melanoma): 32.6 µM
- GI50 (K-562 leukemia): 10.9 µM
- TGI (K-562 leukemia): 29.3 µM
- GI50 (SF-268 CNS): 10.9 µM
- TGI (SF-268 CNS): 27.7 µM
- GI50 (HCT-116 colon): 7.41 µM
- TGI (HCT-116 colon): 20.2 µM
- GI50 (SF-539 CNS): 17.5 µM
- TGI (SF-539 CNS): 32.3 µM
- GI50 (OVCAR-8 ovarian): 18.7 µM
- TGI (OVCAR-8 ovarian): 61.2 µM
- GI50 (ACHN renal): 11.1 µM
- TGI (ACHN renal): 23 µM
- GI50 (UO-31 renal): 8.36 µM
- TGI (UO-31 renal): 21.3 µM
- GI50 (NCI-H460 lung): 7.44 µM
- TGI (NCI-H460 lung): 23.6 µM
- GI50 (MDA-MB-231 breast): 6 µM
- TGI (MDA-MB-231 breast): 18.9 µM
- GI50 (786-0 renal): 10.6 µM
- TGI (786-0 renal): 22.3 µM
- GI50 (PC-3 prostate): 2.95 µM
- TGI (PC-3 prostate): 14.2 µM
- GI50 (SNB-75 CNS): 12.9 µM
- TGI (SNB-75 CNS): 26.3 µM
- GI50 (MOLT-4 leukemia): 5 µM
- TGI (MOLT-4 leukemia): 20.3 µM
